Measurements published in patent US20090238895A1, “NUTRITIONAL AND/OR PHARMACEUTICAL PREPARATION FOR USE IN PROPHYLAXIS AND TREATMENT OF DISTURBANCES IN MICROELEMENTS ABSORPTION FROM THE ALIMENTARY CANAL” (priority 2004, published 2009).
Marks after values point to notes of the source that are not given here.

Assays:
[1] = Iron concentration in plasma of young pigs after FeSO4 or FeSO4/AKG infusion to the duodenum or pelvic intestine; assay type: in vivo
Procedure: (§1) Investigations were performed on 3 piglets of the Swedish race Landrace weighting 30-35 kg. Animals originated from the university herd (Swedish Agricultural University, Dept. of Agricultural Biosystems and Technology, Lund). Young pigs were fed 2 times a day at the same time (9:00-10:00 a.m. and 3:00-4:00 p.m.) with a standard fodder (Vaxfor, Lantmanen, Sweden) with a daily dose 50 g/kg body weight. They were watered ad libitum. Animals were held separately in boxes with automatically regulated 12 hour's periods of day and night.
(§2) Sterile catheters and T-fistulas used in the experience were made of silicone tubes with maintained medical standards (Dow Cornning). Piglets were starved for 9-12 hours before the operation. Before the operation animals received a sedative drug—azoperone (Stresnil, 2 mg/kg body weight). Then the inhalation induction of general anaesthesia was performed (Fluothan 0.5-1.5 vol %). […] With the catheters inserted to the portal vein and the common carotid-artery the blood samples for later analyses were collected.
Two incisions were done: one 10-15 cm close to the right hunger fossa, second 2-3 cm between the brachial joint and the angle of the mandible. Duodenal fistula was placed behind the opening of the pancreatic duct to the duodenum. Pelvic T-fistula (int. diameter 3.18 mm and ext. diameter 4.64 mm—both fistulas) was introduced to the pelvic intestine at the end of the caeco-iliac ligament.
The catheter to the portal vein (int. diameter 0.64 mm and ext. diameter 1.19 mm) was introduced through the liver and fixed with several sutures (0-2 Catgut, Ethicon, England). The catheter placed in portal vein and both intestinal fistulas were brought out the body in the line of incision. After dissection of zygomatic vein the catheter was introduced in the cardiac direction on the depth of 7 cm. The vein was closed with the double ligature (0-3 silicone-, Ethicon, England) and brought outside the body with the surgical needle in the dorsal part of the neck. The abdomen and the neck wounds were closed with two layers of sutures: the peritoneum (only in the abdomen wound) and muscles were closed with twisted suture (0-0 Catgut , Ethicon), the skin was closed with the interrupted sutures (Suturamid 2-0, Ethicon). After operation young pigs were placed in separate boxes. During 5 postoperative days animals were fed twice a day, they received water ad libitum. The operation was performed by the skilled surgeon in accordance with surgical techniques.
Before infusion animals were starved. The daily dose of food was given during evening feeding at 3:00 p.m. All infusions were started at 9:00 a.m. Blood samples were taken 30 minutes before and 15, 30, 60 and 120 minutes after the infusion. 2. Infusions composition.

[2] = AKG concentration in plasma of young pigs after AKG or FeSO4/AKG infusion to the duodenum or pelvic intestine; assay type: in vivo; conditions: FeSO4 infused with AKG
Procedure: as §1, §2
Two incisions were done: one 10-15 cm close to the right hunger fossa, second 2-3 cm between the brachial joint and the angle of the mandible. Duodenal fistula was placed behind the opening of the pancreatic duct to the duodenum. […]

iron concentration in plasma ([1]; infusion to pelvic intestine, portal vein, 15 min): 18.00 ± 5.41^a μmol/l
iron concentration in plasma ([1]; infusion to pelvic intestine, portal vein, 30 min): 17.67 ± 6.53^a μmol/l
iron concentration in plasma ([1]; infusion to pelvic intestine, portal vein, 60 min): 16.83 ± 6.81^a μmol/l
iron concentration in plasma ([1]; infusion to pelvic intestine, portal vein, 120 min): 15.33 ± 7.18^a μmol/l
iron concentration in plasma ([1]; infusion to pelvic intestine, portal vein, -30 min (before infusion)): 19.17 ± 8.69^a μmol/l
iron concentration in plasma ([1]; infusion to pelvic intestine, zygomatic vein, 15 min): 18.83 ± 6.81^a μmol/l
iron concentration in plasma ([1]; infusion to pelvic intestine, zygomatic vein, 30 min): 18.83 ± 6.81^a μmol/l
iron concentration in plasma ([1]; infusion to pelvic intestine, zygomatic vein, 60 min): 18.00 ± 7.47^a μmol/l
iron concentration in plasma ([1]; infusion to pelvic intestine, zygomatic vein, 120 min): 15.67 ± 6.43^a μmol/l
iron concentration in plasma ([1]; infusion to pelvic intestine, zygomatic vein, -30 min (before infusion)): 19.67 ± 7.97^a μmol/l
iron concentration in plasma ([1]; infusion to the duodenum, portal vein, 15 min): 28.5 ± 4.09^b μmol/l
iron concentration in plasma ([1]; infusion to the duodenum, portal vein, 30 min): 37.67 ± 5.3^cb μmol/l
iron concentration in plasma ([1]; infusion to the duodenum, portal vein, 60 min): 40.17 ± 4.62^c μmol/l
iron concentration in plasma ([1]; infusion to the duodenum, portal vein, 120 min): 37.17 ± 4.37^c μmol/l
iron concentration in plasma ([1]; infusion to the duodenum, portal vein, -30 min (before infusion)): 16.33 ± 1.04^a μmol/l
iron concentration in plasma ([1]; infusion to the duodenum, zygomatic vein, 15 min): 29.17 ± 5.51^b μmol/l
iron concentration in plasma ([1]; infusion to the duodenum, zygomatic vein, 30 min): 39.50 ± 4.09^c μmol/l
iron concentration in plasma ([1]; infusion to the duodenum, zygomatic vein, 60 min): 43.0 ± 4.82^c μmol/l
iron concentration in plasma ([1]; infusion to the duodenum, zygomatic vein, 120 min): 39.5 ± 3.5^c μmol/l
iron concentration in plasma ([1]; infusion to the duodenum, zygomatic vein, -30 min (before infusion)): 18.2 ± 1.53^a μmol/l
Structure (SMILES): O=S(=O)([O-])[O-].[Fe+2] [FeSO4]
effect on absorption of AKG from the intestine into the blood [2]: increases the absorption of AKG from the intestine into the blood
